We go through 34 compounds from paper PMC9457997, “2-(Nitroaryl)-5-Substituted-1,3,4-Thiadiazole Derivatives with Antiprotozoal Activities: In Vitro and In Vivo Study” (Molecules, 2022).

Data set [1] deals with T. cruzi, strain Tulahuen C4 amastigotes. Nature of the data set: In vitro activity against T. cruzi amastigotes. Format: cell-based. The following applies: Trypanosoma cruzi, read-out: T. cruzi IC50. The protocol:
Although all of the compounds had been tested against Leishmania major promastigotes in our previous works, to deeper evaluate the antitrypanosomatid potential of the selected nitroimidazole derivatives, their activity was measured against L. donovani axenic amastigotes and T. cruzi amastigotes (Table 2). Miltefosine and benznidazole were used as reference drugs. Compounds 18a and 18g were also tested against L. donovani intracellular amastigotes in peritoneal murine macrophages in a further assay. […]. In vitro activity against the protozoan parasites T. b. rhodesiense, T.cruzi, L. donovani and cytotoxicity assessment against L6 cells were determined as reported previously. The following strains, parasite forms, and positive controls were used: T. b. rhodesiense STIB 900 bloodstream forms, melarsoprol (received from WHO, Arsobal Sanofi); T.cruzi Tulahuen C2C4 intracellular amastigotes, benznidazole (received from DNDi synthesized by Epichem Pty Ltd., Murdoch, Australia); L. donovani MHOM-ET-67/L82 axenically grown amastigotes and intracellular amastigotes, miltefosine (Sigma M5571). L6 rat skeletal myoblasts (ATCC CRL-1458), podophyllotoxin (Sigma P4405).

In a further data set the test system is T. b. rhodesiense. As to conditions: cited from earlier work.
On the set-up of data set [2]: method as in PMID 29191556. The following applies: cited from earlier work.
The test system of another data set is HAT mouse model. The following applies: cited from earlier work.
The next data set has as its system T. b. brucei. The following applies: cited from earlier work.
The subject of another data set is T. brucei. The following applies: cited from earlier work.
The nature of a further data set: in vitro. The following applies: rat.
In data set [3] the test system is T. b. rhodesiense, strain STIB 900 trypomastigotes. Nature of the data set: In vitro activity against T. b. rhodesiense STIB 900 bloodstream forms. Format: cell-based. As to conditions: Trypanosoma brucei, read-out: T. b. rhodesiense IC50.
Data set [4] deals with L. donovani intracellular amastigotes in peritoneal murine macrophages. The data set is described as follows: In vitro activity against L. donovani intracellular amastigotes. Type of data set: cell-based. The following applies: Leishmania donovani, Macrophage, means of two independent assays. Here is the method:
(§1) Miltefosine and benznidazole were used as reference drugs. […] In vitro activity against the protozoan parasites T. b. rhodesiense, T.cruzi, L. donovani and cytotoxicity assessment against L6 cells were determined as reported previously. The following strains, parasite forms, and positive controls were used: T. b. rhodesiense STIB 900 bloodstream forms, melarsoprol (received from WHO, Arsobal Sanofi); T.cruzi Tulahuen C2C4 intracellular amastigotes, benznidazole (received from DNDi synthesized by Epichem Pty Ltd., Murdoch, Australia); L. donovani MHOM-ET-67/L82 axenically grown amastigotes and intracellular amastigotes, miltefosine (Sigma M5571).

For data set [5], the system named is L. donovani, strain MHOM-ET-67/L82 axenically grown amastigotes. Nature of the data set: In vitro activity against L. donovani axenic amastigotes. As to conditions: for IC50: Leishmania donovani, strain MHOM-ET-67/L82 axenically grown amastigotes, means of two independent assays; for TDR criteria class against L. donovani amastigotes: TDR criteria for antiparasitic activity. Type of data set: cell-based. The protocol:
as §1

The test system of data set [6] is T. b. rhodesiense STIB 900. Nature of the data set: T. b. rhodesiense STIB 900 acute mouse model of HAT. Type of data set: in vivo. The following applies: for Cured/Infected / Mean Survival Days (MSD): 4 × 50 mg/kg i.p., acute mouse model STIB 900. The protocol: […]. All of these compounds were administered at an intraperitoneal dose of 50 mg/kg/day for 4 days. […] A total of three of the four mice treated with morpholine derivative 18b were cured and the parasite was not found in the blood of one mouse until day 60 of infection. […] All of the mice treated with compound 18f survived 60 days, but one mouse was parasite positive. Compound 18d presented the least cure rate; a total of three mice were parasite positive and died between days 15 and 20, and one mouse survived.
The in vivo efficacy was determined in the T. b. rhodesiense STIB 900 acute mouse model that mimics the first stage of the disease as described earlier. In vivo efficacy studies in mice were conducted at the Swiss Tropical and Public Health Institute (Basel) (License number 2813), according to the rules and regulations for the protection of animal rights (“Tierschutzverordnung”) of the Swiss “Bundesamt für Veterinärwesen”. They were approved by the veterinary office of Canton Basel-Stadt, Switzerland.

A further data set deals with T. b. gambiense. As to conditions: gambiense HAT patients; cited from earlier work.
The nature of the next data set: Cytotoxicity in L6 cells. As to conditions: rat.
The mark [7] stands for this setting: read-out: IC50 against T. b. rhodesiense.
Where [8] appears, read: read-out: IC50 against T. b. brucei.
The mark [9] stands for this setting: strain STIB 900 trypomastigotes (BSF form), means of two independent assays.

≈ marks a conversion by molar mass, not a printed value. Like-named read-outs stand apart in the source and are kept apart here.

Turning to `O=C(Cn1ccnc1[N+](=O)[O-])NCc1ccccc1` [Benznidazole, reference compound], the IC50 in data set [1] turned out to be 1430 nM.

As to `O=[N+]([O-])c1nccn1CCCNc1ccnc2c(Cl)cccc12` [Compound 2], the IC50 in the data set on T. b. rhodesiense (setting [7]) is 1290 nM.

On to `O=[N+]([O-])c1cn2c(n1)[S+]([O-])CC(OCc1ccc(OC(F)(F)F)cc1)C2` (stereo not drawn) [Compound 3], for which the metabolic stability entry in data set [2] is reported as “good metabolic stability”. Moreover, the “cure rate in an acute infection mouse model of HAT” value with HAT mouse model was 100%.

Turning to `O=C1NC(c2ccccc2)=CN2C=C([N+](=O)[O-])NC12` (stereo not drawn) [Compound 5a], the IC50 in the data set with T. b. brucei (read-out: IC50 against T. brucei brucei) is 220 nM.

For `O=c1c2nc([N+](=O)[O-])cn2ccn1Cc1ccc(-c2ccc(OC(F)(F)F)cc2)cn1` [Compound 6], the IC50 with T. b. brucei (setting [8]) was 2 nM.

For `CN(C)c1nc(N/N=C/c2ccc([N+](=O)[O-])o2)nc(N(C)C)n1` [Compound 7], the IC50 with T. b. rhodesiense (read-out: IC50 against trypomastigotes of T. brucei rhodesiense) was 3 nM.

Consider `CCCCCCCOC(=O)N/N=C/c1ccc([N+](=O)[O-])o1` [Compound 8], for which the IC50 with T. brucei (read-out: IC50 against the BSF form of T. brucei) is 120 nM.

Consider `C=CCOc1ccc(NC(=O)c2ccc([N+](=O)[O-])o2)cc1C(F)(F)F` [Compound 9], for which the IC50 in the data set on T. b. rhodesiense (setting [7]) was 2.9 nM; with T. b. brucei (setting [8]), 2.4 nM.

As for `O=C(N/N=C\c1coc([N+](=O)[O-])c1)C12CC3CC(C1)CC(C(=O)N/N=C/c1ccc([N+](=O)[O-])o1)(C3)C2` [Compound 10], the IC50 with T. brucei (read-out: IC50 against T. brucei) was 75 nM.

For `CC(C)N(CCO/N=C/c1ccc([N+](=O)[O-])s1)C(C)C` [Compound 11], the “MIC, trypanocidal activity” value with T. brucei is recorded as 1 µg/mL (≈ 3.34 µM).

On to `O=[N+]([O-])c1ccc(-c2nnc(N3CCCCC3)s2)o1` [Compound 16a], for which the IC50 is 2490 nM in the data set “in vitro” and 242 nM in [3] (setting [9]).

For the compound `O=[N+]([O-])c1ccc(-c2nnc(N3CCOCC3)s2)o1` [Compound 16b], the IC50 in the data set “in vitro” came out at 5670 nM; in [3] (setting [9]), 914 nM.

For `O=[N+]([O-])c1ccc(-c2nnc(N3CCNCC3)s2)o1` [Compound 16c], the IC50 in “in vitro” is 1060 nM; in data set [3] (setting [9]), 60 nM.

As to `CN1CCN(c2nnc(-c3ccc([N+](=O)[O-])o3)s2)CC1` [Compound 16d], the IC50 in the data set “in vitro” was found to be 1360 nM; in [3] (setting [9]) it was 241 nM.

Regarding `O=[N+]([O-])c1ccc(-c2nnc(N3CCN(c4ccccc4)CC3)s2)o1` [Compound 16e], the IC50 in “in vitro” was 6430 nM; in data set [3] (setting [9]), 540 nM.

For the compound `CC(=O)N1CCN(c2nnc(-c3ccc([N+](=O)[O-])o3)s2)CC1` [Compound 16f], the IC50 in the data set “in vitro” came to 2490 nM; in data set [3] (setting [9]), 81 nM.

Turning to `O=[N+]([O-])c1ccc(-c2nnc(N3CCCCC3)s2)s1` [Compound 17a], the IC50 was determined as 226000 nM in “in vitro” and 647 nM in data set [3] (setting [9]).

For `O=[N+]([O-])c1ccc(-c2nnc(N3CCOCC3)s2)s1` [Compound 17b], the IC50 was over 302000 nM in “in vitro” and 1180 nM in data set [3] (setting [9]).

Consider `O=[N+]([O-])c1ccc(-c2nnc(N3CCNCC3)s2)s1` [Compound 17c], for which the IC50 in “in vitro” worked out at 6380 nM; in data set [3] (setting [9]), 346 nM.

On to `CN1CCN(c2nnc(-c3ccc([N+](=O)[O-])s3)s2)CC1` [Compound 17d], for which the IC50 is 40800 nM in “in vitro” and 1150 nM in data set [3] (setting [9]).

Regarding `O=[N+]([O-])c1ccc(-c2nnc(N3CCN(c4ccccc4)CC3)s2)s1` [Compound 17e], the figures for the IC50 (in “in vitro”; in [3] (setting [9])) were 56500 nM and 11800 nM, respectively.

In the case of `CC(=O)N1CCN(c2nnc(-c3ccc([N+](=O)[O-])s3)s2)CC1` [Compound 17f], the IC50 in “in vitro” was found to be 225000 nM; in data set [3] (setting [9]), 1890 nM.

With `O=C(c1ccccc1)N1CCN(c2nnc(-c3ccc([N+](=O)[O-])s3)s2)CC1` [Compound 17g], the half-maximal inhibitory concentration (IC50) in “in vitro” was 51000 nM; in data set [3] (setting [9]), 438 nM.

Take `Cn1c([N+](=O)[O-])cnc1-c1nnc(N2CCCCC2)s1` [Compound 18a]: the IC50 in “in vitro” was over 306000 nM; in data set [3] (setting [9]), 510 nM; in data set [4], 4760 nM; in data set [5], 476 nM; in [1], 897 nM. Moreover, the “TDR criteria class against L. donovani amastigotes” value (“TDR criteria class” below) in data set [5] is recorded as “active”.

Consider `Cn1c([N+](=O)[O-])cnc1-c1nnc(N2CCOCC2)s1` [Compound 18b], for which the IC50 is 265000 nM in the data set “in vitro”, 145 nM in [3] (setting [9]), 445 nM in [5] and 294 nM in data set [1]. In data set [5], the “TDR criteria class” value is on record as “active”. Moreover, in data set [6], the Cured/Infected was 3/4. For the same compound, in data set [6], the “Mean Survival Days (MSD)” value is over 60 days.

With `Cn1c([N+](=O)[O-])cnc1-c1nnc(N2CCNCC2)s1` [Compound 18c], the IC50 stood at 140000 nM in “in vitro”, 12 nM in data set [3] (setting [9]), 3230 nM in data set [5] and 125 nM in data set [1]. Further, the death during treatment entry in [6] (50 mg/kg/day i.p., mouse excluded from the experimental group) is listed as “One mouse died on day six”. The Cured/Infected in data set [6] is listed as 3/3. Further, the “Mean Survival Days (MSD)” value in data set [6] was over 60 days.

In the case of `CN1CCN(c2nnc(-c3ncc([N+](=O)[O-])n3C)s2)CC1` [Compound 18d], the IC50 in the data set “in vitro” is over 290000 nM; in data set [3] (setting [9]) it was 142 nM; in data set [1] it was 462 nM. For the same compound, the Cured/Infected in data set [6] was 1/4. In addition, the “Mean Survival Days (MSD)” value in data set [6] was over 27.75 days.

As to `Cn1c([N+](=O)[O-])cnc1-c1nnc(N2CCN(c3ccccc3)CC2)s1` [Compound 18e], the concentration for half-maximal inhibition (IC50) in “in vitro” was determined as 163000 nM; in data set [3] (setting [9]), 285 nM.

Regarding `CC(=O)N1CCN(c2nnc(-c3ncc([N+](=O)[O-])n3C)s2)CC1` [Compound 18f], the IC50 in “in vitro” is over 267000 nM; in [3] (setting [9]), 89 nM; in [1], 468 nM. The Cured/Infected in data set [6] is 3/4. Also, the “Mean Survival Days (MSD)” value in data set [6] was over 60 days.

For `Cn1c([N+](=O)[O-])cnc1-c1nnc(N2CCN(C(=O)c3ccccc3)CC2)s1` [Compound 18g], the “TDR criteria class” value in [5] was “active”. The IC50 in data set [1] was determined as 300 nM. The cure rate in [6] (50 mg/kg/day i.p. for 4 days, until 60 days after infection) is on record as 100%. In data set [6], the Cured/Infected is recorded as 4/4 and the “Mean Survival Days (MSD)” value is over 60 days.

For the compound `CSc1ccc(OCc2ncc([N+](=O)[O-])n2C)cc1` [Fexinidazole], the cure rate with T. b. gambiense is 91%.

On to `Nc1nc(N)nc(Nc2ccc([As]3SCC(CO)S3)cc2)n1` (stereo not drawn) [Melarsoprol, reference compound], for which the IC50 in data set [3] came out at 4 nM; in “Cytotoxicity in L6 cells”, 9600 nM.

In the case of `CCCCCCCCCCCCCCCCOP(=O)([O-])OCC[N+](C)(C)C` [Miltefosine, reference compound], the IC50 in [4] was determined as 1840 nM; in [5], 359 nM.

Compound `COc1cc([C@@H]2c3cc4c(cc3[C@H](O)[C@H]3COC(=O)[C@H]23)OCO4)cc(OC)c1OC` [Podophyllotoxin] came in with an IC50 in the data set “Cytotoxicity in L6 cells” of 6 nM.

In general, IC50 refers to the concentration at which inhibition is half-maximal.
